Reference: patent US20110082130A1 (LIGAND PHARMACEUTICALS, INC., priority 2006, published 2011)

These compounds were tested against T1, chimeric human H3 receptor (Homo sapiens, UniProt Q9Y5N1) (assay: Chimeric human H3 receptor screening GTP binding assay (inhibition of histamine-stimulated GTP-gamma35S binding, Example 8)). Conditions: Table II "Ki", symbol †, 4 μM of the compound, 1 μM histamine, read-out: percent inhibition of the signal obtained with 1 μM histamine.
T1 construct: made in house; host or cells: Sf9 insect cells (baculovirus); P2 membrane preparation
Assay type: biochemical
Outline: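 Values are percent inhibition of 1 μM histamine-stimulated GTP-gamma35S […] binding, with non-specific binding (10 μM GTP-gammaS) subtracted, by compounds tested at 4 μM. Membranes (35 μg) from Sf9 cells expressing chimeric human H3 with G-protein subunits were used in Tris pH 7.4 buffer with 10 μM GDP. Incubation lasted 60 min at room temperature, followed by filtration and scintillation counting.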

T1 sequence (Q9Y5N1 with tags, fused parts or gaps): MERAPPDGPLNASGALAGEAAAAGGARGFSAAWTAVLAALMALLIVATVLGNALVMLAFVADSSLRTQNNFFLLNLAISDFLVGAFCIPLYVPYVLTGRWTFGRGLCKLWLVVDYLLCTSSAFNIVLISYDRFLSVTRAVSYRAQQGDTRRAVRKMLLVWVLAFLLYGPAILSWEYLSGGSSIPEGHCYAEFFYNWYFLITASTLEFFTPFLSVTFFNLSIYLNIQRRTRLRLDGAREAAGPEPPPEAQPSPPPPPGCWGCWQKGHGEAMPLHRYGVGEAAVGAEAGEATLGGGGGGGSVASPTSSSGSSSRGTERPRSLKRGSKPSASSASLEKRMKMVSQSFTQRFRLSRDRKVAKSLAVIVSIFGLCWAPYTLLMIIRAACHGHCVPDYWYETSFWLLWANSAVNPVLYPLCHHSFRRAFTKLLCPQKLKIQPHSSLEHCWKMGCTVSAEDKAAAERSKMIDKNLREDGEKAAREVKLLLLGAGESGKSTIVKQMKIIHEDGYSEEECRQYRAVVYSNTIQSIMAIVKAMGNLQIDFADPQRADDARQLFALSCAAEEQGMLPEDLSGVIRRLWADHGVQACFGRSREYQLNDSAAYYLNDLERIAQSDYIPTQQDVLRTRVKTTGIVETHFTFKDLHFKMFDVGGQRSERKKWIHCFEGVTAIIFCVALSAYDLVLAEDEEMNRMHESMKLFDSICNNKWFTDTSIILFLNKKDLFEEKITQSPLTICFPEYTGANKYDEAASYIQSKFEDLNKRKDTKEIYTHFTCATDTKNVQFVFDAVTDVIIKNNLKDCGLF

SMILES	inhibition at 4 µM [%]
CCOc1ccccc1-c1ccc2c(c1)CCN(CC(=O)N1CCN(C(C)C)CC1)C2 [Compound 569, 6-(2-ethoxyphenyl)-2-[2-(4-isopropylpiperazin-1-yl)-2-oxoethyl]-1,2,3,4-tetrahydroisoquinoline]	≥ 90
COc1ccc(F)cc1-c1ccc2c(c1)CCN(CC(=O)N1CCN(C3CCC3)CC1)C2 [Compound 570, 2-[2-(4-cyclobutylpiperazin-1-yl)-2-oxoethyl]-6-(5-fluoro-2-methoxyphenyl)-1,2,3,4-tetrahydroisoquinoline]	≥ 90
COc1ccc(F)cc1-c1ccc2c(c1)CCN(CC(=O)N1CCN(C3CCCC3)CC1)C2 [Compound 571, 2-[2-(4-cyclopentylpiperazin-1-yl)-2-oxoethyl]-6-(5-fluoro-2-methoxyphenyl)-1,2,3,4-tetrahydroisoquinoline]	≥ 90
COc1ccc(C)cc1-c1ccc2c(c1)CCN(CC(=O)N1CCN(C3CCC3)CC1)C2 [Compound 572, 2-[2-(4-cyclobutylpiperazin-1-yl)-2-oxoethyl]-6-(2-methoxy-5-methylphenyl)-1,2,3,4-tetrahydroisoquinoline]	≥ 90
COc1ccc(C)cc1-c1ccc2c(c1)CCN(CC(=O)N1CCN(C3CCCC3)CC1)C2 [Compound 573, 2-[2-(4-cyclopentylpiperazin-1-yl)-2-oxoethyl]-6-(2-methoxy-5-methylphenyl)-1,2,3,4-tetrahydroisoquinoline]	≥ 90
COc1ccc(C)cc1-c1ccc2c(c1)CCN(CC(=O)N1CCN(C3CCCCC3)CC1)C2 [Compound 574, 2-[2-(4-cyclohexylpiperazin-1-yl)-2-oxoethyl]-6-(2-methoxy-5-methylphenyl)-1,2,3,4-tetrahydroisoquinoline]	≥ 90
O=C(CN1CCc2cc(-c3ccccc3Oc3ccccc3)ccc2C1)N1CCN(C2CCC2)CC1 [Compound 575, 2-[2-(4-cyclobutylpiperazin-1-yl)-2-oxoethyl]-6-(2-phenoxyphenyl)-1,2,3,4-tetrahydroisoquinoline]	≥ 90
O=C(CN1CCc2cc(-c3ccccc3Oc3ccccc3)ccc2C1)N1CCN(C2CCCC2)CC1 [Compound 576, 2-[2-(4-cyclopentylpiperazin-1-yl)-2-oxoethyl]-6-(2-phenoxyphenyl)-1,2,3,4-tetrahydroisoquinoline]	≥ 90
O=C(CN1CCc2cc(-c3ccccc3Oc3ccccc3)ccc2C1)N1CCN(C2CCCCC2)CC1 [Compound 577, 2-[2-(4-cyclohexylpiperazin-1-yl)-2-oxoethyl]-6-(2-phenoxyphenyl)-1,2,3,4-tetrahydroisoquinoline]	≥ 90
CC(C)N1CCN(C(=O)CN2CCc3cc(-c4ccccc4Oc4ccccc4)ccc3C2)CC1 [Compound 578, 2-[2-(4-isopropylpiperazin-1-yl)-2-oxoethyl]-6-(2-phenoxyphenyl)-1,2,3,4-tetrahydroisoquinoline]	≥ 90
O=C(CN1CCc2cc(-c3ccc(F)c(Cl)c3)ccc2C1)N1CCN(C2CCC2)CC1 [Compound 579, 6-(3-chloro-4-fluorophenyl)-2-[2-(4-cyclobutylpiperazin-1-yl)-2-oxoethyl]-1,2,3,4-tetrahydroisoquinoline]	≥ 90
O=C(CN1CCc2cc(-c3ccc(F)c(Cl)c3)ccc2C1)N1CCN(C2CCCC2)CC1 [Compound 580, 6-(3-chloro-4-fluorophenyl)-2-[2-(4-cyclopentylpiperazin-1-yl)-2-oxoethyl]-1,2,3,4-tetrahydroisoquinoline]	≥ 90
O=C(CN1CCc2cc(-c3ccc(F)c(Cl)c3)ccc2C1)N1CCN(C2CCCCC2)CC1 [Compound 581, 6-(3-chloro-4-fluorophenyl)-2-[2-(4-cyclohexylpiperazin-1-yl)-2-oxoethyl]-1,2,3,4-tetrahydroisoquinoline]	≥ 90
O=C(CN1CCc2cc(-c3cc(F)ccc3F)ccc2C1)N1CCN(C2CCC2)CC1 [Compound 582, 2-[2-(4-cyclobutylpiperazin-1-yl)-2-oxoethyl]-6-(2,5-difluorophenyl)-1,2,3,4-tetrahydroisoquinoline]	≥ 90
O=C(CN1CCc2cc(-c3cc(F)ccc3F)ccc2C1)N1CCN(C2CCCC2)CC1 [Compound 583, 2-[2-(4-cyclopentylpiperazin-1-yl)-2-oxoethyl]-6-(2,5-difluorophenyl)-1,2,3,4-tetrahydroisoquinoline]	≥ 90

Other lines, results leading:

inhibition at 4 µM [%]	SMILES
≥ 90	O=C(CN1CCc2cc(-c3cc(F)ccc3F)ccc2C1)N1CCN(C2CCCCC2)CC1 [Compound 584, 2-[2-(4-cyclohexylpiperazin-1-yl)-2-oxoethyl]-6-(2,5-difluorophenyl)-1,2,3,4-tetrahydroisoquinoline]
≥ 90	CC(C)N1CCN(C(=O)CN2CCc3cc(-c4cc(F)ccc4F)ccc3C2)CC1 [Compound 585, 6-(2,5-difluorophenyl)-2-[2-(4-isopropylpiperazin-1-yl)-2-oxoethyl]-1,2,3,4-tetrahydroisoquinoline]
≥ 90	O=C(CN1CCc2cc(-c3ccc(F)cc3F)ccc2C1)N1CCN(C2CCC2)CC1 [Compound 586, 2-[2-(4-cyclobutylpiperazin-1-yl)-2-oxoethyl]-6-(2,4-difluorophenyl)-1,2,3,4-tetrahydroisoquinoline]
≥ 90	O=C(CN1CCc2cc(-c3ccc(F)cc3F)ccc2C1)N1CCN(C2CCCC2)CC1 [Compound 587, 2-[2-(4-cyclopentylpiperazin-1-yl)-2-oxoethyl]-6-(2,4-difluorophenyl)-1,2,3,4-tetrahydroisoquinoline]
≥ 90	O=C(CN1CCc2cc(-c3ccc(F)cc3F)ccc2C1)N1CCN(C2CCCCC2)CC1 [Compound 588, 2-[2-(4-cyclohexylpiperazin-1-yl)-2-oxoethyl]-6-(2,4-difluorophenyl)-1,2,3,4-tetrahydroisoquinoline]
≥ 90	O=C(CN1CCc2cc(-c3ccc(F)c(F)c3)ccc2C1)N1CCN(C2CCC2)CC1 [Compound 589, 2-[2-(4-cyclobutylpiperazin-1-yl)-2-oxoethyl]-6-(3,4-difluorophenyl)-1,2,3,4-tetrahydroisoquinoline]
≥ 90	O=C(CN1CCc2cc(-c3ccc(F)c(F)c3)ccc2C1)N1CCN(C2CCCC2)CC1 [Compound 590, 2-[2-(4-cyclopentylpiperazin-1-yl)-2-oxoethyl]-6-(3,4-difluorophenyl)-1,2,3,4-tetrahydroisoquinoline]
≥ 90	O=C(CN1CCc2cc(-c3ccc(F)c(F)c3)ccc2C1)N1CCN(C2CCCCC2)CC1 [Compound 591, 2-[2-(4-cyclohexylpiperazin-1-yl)-2-oxoethyl]-6-(3,4-difluorophenyl)-1,2,3,4-tetrahydroisoquinoline]
≥ 90	O=C(CN1CCc2cc(-c3cc(Cl)cc(Cl)c3)ccc2C1)N1CCN(C2CCC2)CC1 [Compound 592, 2-[2-(4-cyclobutylpiperazin-1-yl)-2-oxoethyl]-6-(3,5-dichlorophenyl)-1,2,3,4-tetrahydroisoquinoline]
≥ 90	O=C(CN1CCc2cc(-c3ccc(Cl)c(F)c3)ccc2C1)N1CCN(C2CCCCC2)CC1 [Compound 593, 6-(4-chloro-3-fluorophenyl)-2-[2-(4-cyclohexylpiperazin-1-yl)-2-oxoethyl]-1,2,3,4-tetrahydroisoquinoline]
